# Test system: enhancer region of cytochrome 1A1 gene
# Assay: Detection of nitrogen monoxide (NO.) having responded to carcinogenicity by iNOS vector pXRE-SV40-NOS2 (DAF2-DA fluorescence)
# Format: cell-based, mouse
# Details: Neuro2a transfected with pXRE-SV40-NOS2; 1.0 μM, 24 hours; compared with DMSO; inverted fluorescence microscope (FIG. 3A, 3B)
# Source text: An enhancer region responsive to a carcinogenic substance was incorporated in the iNOS vector: pSV40-NOS2. The enhancer region of cytochrome 1A1 gene responsive to a carcinogenic substance (benzopyrene) (SEQ ID NO: 4) was amplified by PCR from a mouse genome. The 5′ terminal of the amplified enhancer region was phosphorylated with T4 polynucleotide kinase, and ligated using T4 ligase to pSV40-NOS2 having been digested with restriction enzyme Sma I and having its 5′ terminal dephosphorylated with alkali phosphatase, thereby obtaining pXRE-SV40-NOS2 (FIG. 2). Using this vector, the correlation of the activation of the enhancer region by a carcinogenic substance with the amount of nitrogen monoxide (NO.) synthesized by iNOS was studied.
# Mouse neuroblastoma Neuro2a (American Type Cell Culture) was seeded on a 24-well plate at a density of 8.0×10^4 cells/well, and using DMEM/F12 medium (DF1:1 medium) supplemented with 10% fetal calf serum (FCS), cultured overnight in a 5% CO2 atmosphere at 37° C. […] Two hours later, the cells were washed with phosphate buffer (PBS) twice, and the fluorescence by the reaction product of DAF-2DA and nitrogen monoxide (NO.) (DAF-2T, excitation wavelength: 495 nm, fluorescence wavelength: 515 nm) was observed by means of an inverted fluorescence microscope.
compound,measurement,value
c1ccc2c(c1)c1cccc3ccc4cccc2c4c31 [benzopyrene],fluorescence by the reaction product of DAF-2DA and nitrogen monoxide (NO.),induction of fluorescence
